From patent publication US5198418A, “Substituted alkylamides of teicoplanin compounds” (Gruppo Lepetit S.p.A., priority 1987, dated 1993)

Legend:
[1] = test system: Strepto. pneumoniae UC 41; assay: in vitro antibacterial activity, MIC; assay type: cell-based; settings: inoculum about 10^4 CFU/ml, 18-24 h at 37° C.
Method: (§1) ISOSENSITEST broth, culture medium (Oxoid) and Todd-Hewitt broth, culture medium (Difco) are used for growing staphylococci and streptococci, respectively. Broth cultures are diluted so that the final inoculum is about 10^4 colony forming units/ml (CFU/ml).

[2] = test system: Pseudomonas aeruginosa ATCC 10145; assay: in vitro antibacterial activity, MIC; assay type: cell-based; settings: inoculum about 10^4 CFU/ml, 18-24 h at 37° C.
Method: as §1

[3] = test system: Proteus vulgaris X 19H ATCC 881; assay: in vitro antibacterial activity, MIC; assay type: cell-based; settings: inoculum about 10^4 CFU/ml, 18-24 h at 37° C.
Method: as §1

Staph. haemoliticus 602 = assay: in vitro antibacterial activity, MIC; assay type: cell-based; settings: inoculum about 10^4 CFU/ml, 18-24 h at 37° C.
Method: as §1

E. coli SKF 12140 = assay: in vitro antibacterial activity, MIC; assay type: cell-based; settings: inoculum about 10^4 CFU/ml, 18-24 h at 37° C.
Method: as §1

Staph. aureus Tour = assay: in vitro antibacterial activity, MIC; assay type: cell-based; settings: inoculum about 10^4 CFU/ml, 18-24 h at 37° C.
Method: as §1

[4] = test system: Strepto. faecalis ATCC 7080; assay: in vitro antibacterial activity, MIC; assay type: cell-based; settings: inoculum about 10^4 CFU/ml, 18-24 h at 37° C.
Method: as §1

[5] = test system: Staph. epidermidis ATCC 12228; assay: in vitro antibacterial activity, MIC; assay type: cell-based; settings: inoculum about 10^4 CFU/ml, 18-24 h at 37° C.
Method: as §1

Strepto. pyogenes C 203 = assay: in vitro antibacterial activity, MIC; assay type: cell-based; settings: inoculum about 10^4 CFU/ml, 18-24 h at 37° C.
Method: as §1

S. pyogenes C 203 = assay: in vivo activity in mice infected with S. pyogenes

| Compound | MIC [1] | MIC [2] | MIC [3] | MIC (Staph. haemoliticus 602) | MIC (E. coli SKF 12140) | MIC (Staph. aureus Tour) | MIC [4] | MIC [5] | MIC (Strepto. pyogenes C 203) | ED50 (S. pyogenes C 203; route of administration p.o.) | ED50 (S. pyogenes C 203; route of administration s.c) |
| --- | --- | --- | --- | --- | --- | --- | --- | --- | --- | --- | --- |
| Cl.NC1C(=O)NC2Cc3ccc(c(Cl)c3)Oc3cc4cc(c3O)Oc3ccc(cc3Cl)C(O)C3NC(=O)C(NC(=O)C4NC(=O)C(NC2=O)c2cc(O)cc(c2)Oc2cc1ccc2O)c1ccc(O)c(c1)-c1c(O)cc(O)cc1C(C(=O)NC(CCC(=O)N1CCSCC1)C(=O)N1CCSCC1)NC3=O (centres unmarked) [Compound 22] | 0.12 µg/mL | > 128 µg/mL | > 128 µg/mL | 0.12 µg/mL | > 128 µg/mL | 0.12 µg/mL | 0.12 µg/mL | 0.06 µg/mL | 0.12 µg/mL |  |  |
| CCCCC(NC(=O)C1NC(=O)C2NC(=O)C(NC(=O)C3NC(=O)C4NC(=O)C(Cc5ccc(c(Cl)c5)Oc5cc3cc(c5O)Oc3ccc(cc3Cl)C2O)NC(=O)C(NC(=O)OC(C)(C)C)c2ccc(O)c(c2)Oc2cc(O)cc4c2)c2ccc(O)c(c2)-c2c(O)cc(O)cc21)C(=O)NCCS (centres unmarked) [Compound 20] |  |  |  |  |  |  |  |  |  | > 300 mg/kg | 8.70 mg/kg |
